Assay results taken from patent publication US20070207191A1, “PHARMACEUTICAL COMPOSITIONS AND METHODS TO ACHIEVE AND MAINTAIN A TARGETED AND STABLE COPPER STATUS AND PREVENT AND TREAT COPPER-RELATED CENTRAL NERVOUS SYSTEM DISEASES” (priority 2006, published 2007).
Entries after “also recorded” stand apart in the source; their conditions may differ.

Legend:
[1] = Example 13: dissolution of ATTM capsule in artificial gastric fluid; assay type: physicochemical
Procedure: FIG. 1 is a plot of the dissolution profile of an ammonium tetrathromolybdate (ATTM) capsule in gastric juice in accordance with Example 13 hereof; and
We performed a dissolution experiment using a capsule containing 20 mg of ammonium tetrathiomolybdate plus excipient. ATTM crystals used were 500 microns or smaller. […] After, 3 hours of dissolution, black particles released from the capsule were found suspended in solution. After neutralization of the gastric media to pH 9, these black particles disappeared resulting in about 10% of ATTM being recovered.
• 1. […] Conclusion: ˜90% of ATTM is destroyed in the stomach. Method: Material Studied • 1. Study was performed on R&D Pipex formulated capsule of ATTM. • 2. The ATTM was milled through a 500 micron sieve. • 3. The capsule contained ˜20 mg of ATTM and 180 mg of excipient. Dissolution Conditions • 1. Media: 1 liter of UPS artificial gastric fluid pH 2 • 2. Temp: 22° C. • 3. Paddle RPMs: 100 • 4. Dissolution time: 3 hours Procedure • 1. A #2 QualiCaps capsule available from Shionogi Europe, B.V. was mechanically dropped into media at time zero • 2. 1 ml of media was then collected at 1, 2, 4, 8, 16, 30, 45, 75, 120 and 180 min • 3. Following 3 hours of dissolution, the pH was raised to 9 using NaOH pellets. • 4. The media was paddled for 1 hour. • 5. After 1 hour a sample was collect for analysis Analysis • 1. 400 ul of collected media was diluted to 2 ml with phosphate buffer, pH 7 • 2. The solution was placed in a cuvette and scanned between 260 and 600 nm. • 3. Absorbance was measured at 367 nm. • 4. The extinction coefficient was calculated using Beer's law. • 5. The extinction coefficient of a reference sample in a capsule is 13500 cm^−1 M^−1 Conclusion: • 1. Any ATTM that dissolves in media at pH 2 is immediately destroyed. • 2. Some of the ATTM floated in the media as black specks following 3 hours of dissolution. • 3. After three hours when the pH of the solution was raised to pH 9, the color of the solution changed to an orange color. • 4. This presumably is stable ATTM that has dissolved. • 5. […]

[2] = Example 14: stability of ATTM capsules after eight weeks; assay type: physicochemical; details: stored at RT and ambient RH
[3] = Dissolution of ATTM crystals of different size in acidic buffer (pH 2); assay type: physicochemical
Procedure: After 1 hour of incubation in acidic buffer, more than 50% of ATTM was found.
• 1. ATTM purchased from Sigma-Aldrich was sieved using a 1700 micron screen. […] ATTM crystals were ground so that no crystals were larger than 50 microns. These will be referred to as small crystals. • 3. 100 mg of each type of crystal was weighed and added to separate 1.7 ml plastic centrifuge tubes. • 4. 1 ml of buffer pH 2 was added to each tube without mixing. • 5. After 1 hour, each tube was centrifuged at 14,000 rpms for 1 minute. • 6. The supernatant was removed and analyzed for ATTM content. • 7. To the pellet of each tube was added 1 ml of phosphate buffer pH 7.4 • 8. Each solution was vortex-mixed. • 9. Each tube was centrifuged at 14,000 rpms for 1 min. • 10. The supernatant from each tube was analyzed for ATTM content. Analysis: • 1. A 1 to 100 dilution of all supernatants were made in phosphate buffer pH 7.4. • 2. 2 ml of each diluted sample were added to plastic cuvettes. • 3. Absorbance was measured at 467 nm. • 4. The extinction coefficients (EC) of ATTM for each sample were calculated.
Observations: • 1. When acid buffer was added to small crystals of ATTM, the solution turned immediately black and a sulfur odor could be detected. • 2. […] This was observed by the 1 hour incubation time point. • 3. When acid buffer was added to large crystals of ATTM, a small amount of black coloration leached from the crystal. […] Conclusions: • 1. […] In acid, un-dissolved ATTM from large crystals can be liberated with a secondary dissolution in neutral media. • 5.

[4] = infants at one month of age, supplemented 80 μg Cu/kg daily for 15 days; cited from earlier work
free copper in the CNS = details: in vivo
neural tube defects = details: adequate intake by mothers prior to pregnancy; cited from earlier work
[5] = system: intestinal absorption of copper; details: cited from earlier work
[6] = Example 6: colour stability of crushed versus lyophilized tetrathiomolybdate; assay type: physicochemical
Text: Tetrathiothiomolybdate crystals are either crushed to a powder, that is initially orange in color, or placed in water to dissolve yielding a bright orange solution, which is filtered and lyophilized, which results in a dry powder orange in color.

[7] = Storage stability of tetrathiomolybdate under typical atmospheric temperature and humidity; assay type: physicochemical; details: within three months
Text: Tetrathiohiomolydates, under typical atmospheric condition of temperature and humidity are unstable and the active ingredient can undergo oxidation to molybdenum sulfoxide. Molydbdenum sulfoxide is not active as a copper binding agent and therapeutic agent for reduing body copper levels in humans. Tetrathiomolybdates can be expected to lose approximately 10% of its potency within three months if stored under such conditions.

[8] = Example 5: tetrathiomolybdate crystals and capsule in simulated stomach acid; assay type: physicochemical
Procedure: Large (>1000 microns) and small (<50 microns) dark orange crystals of tetrathiomolybdate are placed in a solution of a commercially available simulated stomach acid. […] The dissolution properties of the large verses small crystals are clearly distinct. To further examine the properties of a methylcellulose capsule containing 20 mg of tetrathiomolybdate and 180 mg of excipient containing a heterogenous size range (200-800 microns) of tetrathiomolybdate crystals was examined in a dissolution chamber initially containing simulated stomach acid. The gelatin capsule dissolved within 15 minutes. Tetrathiothiomolybdate recovery was assessed by UV/Visible absorption periodically over 3 hours, a time consistent with the initiation of gastric emptying and the initial phase of postprandial absorption. […] At three hours the remaining gastric juice was made alkaline by adjusting the pH to 8-9, the solution turned orange to red and was assessed by UV/V is spectroscopy to determine the recover of tetrathiothiomolybdate, which was approximately 7% of the amount in the capsule.
When the same experiment is performed with small crystals, much less than 7% of parent compound is recovered, while when the experiment is performed with large crystals much greater than 7% of parent compound is recovered.

[9] = current formulations; cited from earlier work
[10] = oral dose of Cu^64 as copper acetate, humans; cited from earlier work
[11] = crystals 1700 microns or greater
[12] = pellet taken up in phosphate buffer pH 7.4
[13] = pellet taken up in phosphate buffer pH 7.4, 1 to 100 dilution
[14] = supernatant after 1 hour in buffer pH 2
[15] = supernatant after 1 hour in buffer pH 2, 1 to 100 dilution
[16] = 50 mg immediate release capsules three times per day away from meals and beverages, Wilson's disease patients

With `[NH4+].[NH4+].[SH-].[SH-].[S]=[Mo]=[S]` [ATTM, ammonium tetrathiomolybdate] the “ATTM recovered after neutralization of the gastric media to pH 9” value ([1]; after 3 hours of dissolution) was “about 10%”, the ATTM destroyed ([1]; artificial gastric fluid over three hours) was ~90% and the “ATTM recovered dissolved in the gastric dissolution medium” value ([1]; artificial gastric fluid pH 2, 22° C., up to 3 hours, crystals 500 microns or smaller) was “No ATTM was recovered; also recorded: No ATTM was found dissolved”. The “stability after 8-Weeks” value [2] was “completely stable”, the “survival of dissolved ATTM in acid media” value [3] was “does not survive in acid media” and the “ATTM found after 1 hour of incubation in acidic buffer” value ([3]; crystals 50 microns or less) was “no ATTM was found”. For the same molecule, the “dissolution behaviour in acidic buffer (pH 2)” value ([3]; crystals 50 microns or less) was “dissolved rapidly; also recorded: dissolves in Acid media but soon forms an insoluble precipitate”, the “ATTM found after 1 hour of incubation in acidic buffer” value [3, 11] was “more than 50%” and the “dissolution behaviour in acidic buffer (pH 2)” value [3, 11] was “dissolved slowly; also recorded: forms a black coating which seems to resist dissolution”.

With `[NH4+].[NH4+].[SH-].[SH-].[S]=[Mo]=[S]` [Large Crystal, ammonium tetrathiomolybdate] the “Extinction Coefficient” value [3, 12] was 7,000, the “Absorbance at 467” value [3, 13] was 0.310 and the “Extinction Coefficient” value [3, 14] was 0. The “Absorbance at 467” value [3, 15] was 0.

In the case of `[NH4+].[NH4+].[SH-].[SH-].[S]=[Mo]=[S]` [Small Crystal, ammonium tetrathiomolybdate], the “Extinction Coefficient” value [3, 12] is reported as 0, the “Absorbance at 467” value [3, 13] is reported as 0 and the “Extinction Coefficient” value [3, 14] is reported as 0. For the same molecule, the “Absorbance at 467” value [3, 15] was 0.

In the case of `O=S(=O)([O-])[O-].[Cu+2]` [copper sulfate], the “Mean (+SD) copper absorption” value [4] is given as 74.8+15.2%.

With `CC(C)(S)[C@@H](N)C(=O)O` [d-pencillamine, d-penicillamine] the “levels of free copper in the CNS” value (free copper in the CNS) was “increase the levels of free copper in the CNS”.

For `Nc1nc2ncc(CNc3ccc(C(=O)N[C@@H](CCC(=O)O)C(=O)O)cc3)nc2c(=O)[nH]1` [folic acid], the “reduction of the incidence of NTDs” value (neural tube defects) is listed as “up to 70%”.

In the case of `[SH-].[SH-].[S]=[Mo]=[S]` [tetrathiomolybdate], the “blocking of copper absorption compared with zinc” value ([5]; human, in vivo) is given as “more effective blocker of copper absorption than zinc”, the colour stability ([6]; crushed crystals, nitrogen overlay, room temperature, closed tube) is given as “slowly turn black within a few day” and the colour stability ([6]; lyophilized dry powder, similar conditions) is given as “remains orange for over a month”. The colour stability ([6]; protected from atmosphere and moisture by covering with mineral) was “remains orange (i.e. not oxidized) for over a month”, the loss of potency [7] was “approximately 10%” and the “detection in simulated gastric samples, removed and neutralized” value ([8]; any time point over three hours, UV/Visible absorption) was “not detectable”. The capsule dissolution time ([8]; capsule with 20 mg tetrathiomolybdate and 180 mg excipient, simulated stomach acid) was ≤ 15 min, the “behaviour in simulated stomach acid” value ([8]; large (>1000 microns) crystals) was “remain relatively intact” and the “behaviour in simulated stomach acid” value ([8]; small (<50 microns) crystals) was “form a disaggregate cloudy black solution”.

For `NCCNCCNCCN` [trientine], the “levels of free copper in the CNS” value (free copper in the CNS) was “increase the levels of free copper in the CNS”.

In the case of `CC(=O)[O-].CC(=O)[O-].[Zn+2]` [zinc acetate], the “mean Cu^64 uptake” value [5, 16] is listed as 0.82 % of the administered dose, the mean copper balance [5, 16] is listed as -0.44 mg/day and the control of copper ([5]; once daily dosing of immediate release capsules) is listed as “does not provide adequate control of copper”. The stomach irritability [9] was ~10 % of patients.

In the case of `[Zn]` [zinc], the “copper balance induced, average” value ([5]; Wilson's patients, from the two week point) is listed as −0.35 mg daily, the “time to achieve intestinal metallothionein induction and a negative copper balance” value ([5]; Wilson's patients) is listed as “approximately two” and the “time to bring urine copper and nonceruloplasmin plasma copper down to subtoxic levels” value ([5]; zinc therapy) is listed as “six”.

For copper acetate, the “oral dose absorbed from the gastrointestinal tract” value [10] is given as “about 65%” and the “oral dose absorbed from the gastrointestinal tract, range” value [10] is given as 15-97%.
